{
  "source": "patent US8557795B2",
  "about": "“Composition containing Chamaecyparis obtusa polysaccharides to be externally applied to the skin” (Amorepacific Corporation, priority 2009, dated 2013)",
  "key": {"[1]": {"system": "TPA-induced mouse ear inflammation", "test": "TPA-induced mouse ear inflammation model", "assay_type": "in vivo, ICR mice", "conditions": "24 hours after TPA, polysaccharide 0.5% in 80% ethanol, indomethacin 0.5 mg/ear", "procedure": "The tetradecanoyl phorbol acetate (TPA)-induced mouse ear inflammation model is an experimental method which is widely used to test the mechanism of action of inflammatory responses and the effect of inhibitors (De Young L M et al., Agents and Actions, 26; 335-341 (1989)). In order to confirm the inflammation inhibitory effect of the Chamaecyparis obtusa polysaccharide, 8-week-old male ICR mice (8 animals per group) were prepared. The test group was treated with TPA and applied with a solution of the Chamaecyparis obtusa polysaccharide dispersed in a 80% ethanol aqueous solution, the untreated group was applied with a 80% ethanol aqueous solution alone without treatment with TPA, the negative control group was treated with TPA and applied with a 80% ethanol aqueous solution alone, and the positive control group was treated with TPA and applied with 0.5 mg of indomethacine (Sigma, USA) in place of the Chamaecyparis obtusa polysaccharide. […] The mice of the untreated group, the negative control group and the positive control group were also treated as described above. At 24 hours after application of TPA, the mice were euthanized by cervical dislocation, and the left ear was sampled in a given area, and the weight thereof was measured. […] The inhibition (%) is calculated according to the following equation 4. […]"}, "[2]": {"system": "MMP-1 (matrix metalloproteinase I)", "test": "Inhibition of UV-B-induced MMP-1 biosynthesis in human normal fibroblasts (ELISA)", "assay_type": "cell-based", "conditions": "irradiated with UV-B 40 mJ/cm^2; 10 μM; 2 days; non-irradiated control 100, UV alone 152", "procedure": "Human normal fibroblasts were cultured in a 12-well culture plate at a concentration of 10^5 cells/well, and then irradiated with 40 mJ/cm^2 of UV-B, after which the medium was replaced with a medium containing each of 1 ppm, 10 ppm and 50 ppm of the Chamaecyparis obtusa polysaccharide obtained in Preparation Example 1. At 2 days of culture, the cells were harvested, and the amount of MMP-1 (matrix metalloproteinase I) produced in the cells was measured by an ELISA assay. As a positive control, retinoic acid (RA, Sigma, USA) was used. Each of the measurement values was calculated relative to […] for a control containing no Chamaecyparis obtusa polysaccharide and which was not irradiated with UV-B. The results of the calculation are shown in Table 2 below."}, "type I procollagen": {"system": "type I procollagen", "test": "Type I procollagen assay (ELISA) in human normal fibroblasts", "assay_type": "cell-based", "conditions": "10 ng/Ml; positive control set to 100", "procedure": "Human normal fibroblasts were cultured in a 12-well culture plate at a concentration of 10^5 cells/well, and then the medium was replaced with each of media containing 1 ppm, 10 ppm and 50 ppm of the Chamaecyparis obtusa polysaccharide obtained in Preparation Example 1. As a positive control, TGF-β (Human Transforming Growth Factor-β1, Roche Co.) was used. At 3 days of culture, the cells were harvested, and the amount of type I procollagen produced in the cells was measured by an ELISA assay. Each of the measurement values was calculated relative to 0 for a control containing no Chamaecyparis obtusa polysaccharide and 100 for the positive control, and the results of the calculation are shown in Table 1 below."}, "[3]": {"system": "C57BL/6 mouse melanocytes (Mel-Ab cells)", "test": "Melanin production inhibitory effect using mouse melanocytes", "assay_type": "cell-based", "conditions": "72 h, 3 days", "procedure": "Mouse melanocytes were used to examine the melanin production inhibitory effect of the Chamaecyparis obtusa polysaccharide of the present invention. First, C57BL/6 mouse melanocytes (Mel-Ab cells) (Dooley, T. P. et al, Skin pharmacol, 7, pp 188-200) were cultured in DMEM (Dulbeccos modified Eagles media), containing 10% fetal bovine serum, 100 nM 2-O-tetradecanoyphorbol-13-acetate and 1 nM cholera toxin, in conditions of 37° C. and 5% CO2. The cultured Mel-Ab cells were detached with 0.25% trypsin-EDTA and cultured in a 24-well culture plate at a concentration of 10^5 cells/well. Then, from 2 days of culture, each of 10 ppm, 50 ppm and 100 ppm of the Chamaecyparis obtusa polysaccharide was continuously added thereto and cultured for 3 days. Herein, arbutin was used as a positive control. Then, the media were removed, and the cells were washed with PBS and lysed with 1N sodium hydroxide. The lysed cells were measured for absorbance at 400 nm, and based on the measured absorbance, the inhibition (%) of melanin production was calculated according to the following equation 2. Inhibition (%) of melanin production=100−(absorbance of each test material/absorbance of control×100) [Equation 2]"}, "human keratinocytes": {"system": "human keratinocytes", "test": "Induction of differentiation of human keratinocytes (cornified envelop amount)", "assay_type": "cell-based", "conditions": "Ca^2+ 1.2 mM (positive control); relative to 100 for low calcium (0.03 mM) control", "procedure": "The effect of the Chamaecyparis obtusa polysaccharide of the present invention on the promotion of cell differentiation was examined by measuring the amount of CE (cornified envelop) produced during differentiation of keratinocytes and a human keratinocyte cell line (HaCaT).\nPrimarily cultured human keratinocytes were placed in a culture flask and allowed to adhere to the bottom of the flask, and then calcium and the Chamaecyparis obtusa polysaccharide were added to the culture media at varying concentrations. The cells were cultured for 5 days to a confluency of about 70-80%. The cultured cells were harvested and washed with PBS (phosphate buffered saline), and then 1 ml of 10 mM Tris-HCl buffer (pH 7.4), containing 2% SDS (sodium dodecyl sulfate) and 20 mM DTT (dithiothreitol), was added to the cells. The cell solution was sonicated, boiled and centrifuged, and the resulting precipitate was suspended in 1 ml of PBS and measured for absorbance at 340 nm. Meanwhile, a portion of the solution after the sonication was taken and measured for its protein content, and the measured value was used as a standard for evaluating the degree of cell differentiation. […] Each of the measurement values was calculated relative to 100 for the negative control (low calcium concentration), and the results of the calculation are shown in Table 6 below."}, "transglutaminase": {"system": "transglutaminase", "test": "Expression of transglutaminase in human keratinocytes", "assay_type": "cell-based", "conditions": "Ca^2+ 1.2 mM (positive control); relative to 100 for low calcium (0.03 mM) control", "procedure": "Human skin cells were placed in a 96-well plate at a concentration of 5×10^4 cells/well and attached to the plate for 24 hours. The attached skin cells were treated with the test material, and after 2 days, the medium was removed, and the cells were stored in a refrigerator at […]. The cells were frozen and thawed twice, disrupted and treated with acetone:ethanol (1:1, v/v), stored at −20° C. The treated cells were left to stand at 4° C. for 30 minutes to immobilize the cells. Then, the cells were left to stand at room temperature to evaporate the organic solvent and were blocked with 1% bovine serum albumin. The blocked cells were treated with transglutaminase antibody (primary antibody) and HRP anti-mouse antibody (secondary antibody), and the color development of the cells was carried out by the addition of OPD (o-phenyldiamine). The expression level of transglutaminase in the cells was measured by measuring the absorbance at 490 nm, and the correction was carried out by measuring the background at 630 nm. A low calcium (0.03 mM)-treated group and a high calcium (1.2 mM)-treated group were used as a negative control group and a positive control group, respectively. Each of the measurement values was calculated relative to 100 for the negative control (low calcium concentration), and the results of the calculation are shown in Table 7 below."}, "human skin": {"system": "human skin", "test": "Whitening effect on UVB-darkened human skin (colorimeter)", "assay_type": "in vivo", "conditions": "UVB-darkened upper arm; 10 weeks of application; solvent control 0.51 ± 0.13", "procedure": "In order to examine the whitening effect of the Chamaecyparis obtusa polysaccharide of the present invention on the human skin, the following test was carried out. First, on 12 healthy men as subjects, a 1.5-cm perforated opaque tape was attached to the upper arm portion of the subjects, and then the attached portion was radiated with UVB at a dose about 1.5-2 times the minimal erythema dose of each subject to induce skin darkening.\nThe color of the skin was measured with a colorimeter CR2002 (Japan, Minolta). Then, the difference (ΔL*) in skin color between the time point of initiation of application and the time point of completion of application (after 10 weeks) of each test material was calculated according to the following equation 3, and the results of the calculation are shown in Table 5 below.\nMeanwhile, the skin whitening effect is evaluated by measuring the ΔL* value between the sample-applied portion and the control portion. […] Difference (ΔL*) skin color=L*value at the time of completion of application−L*value at the time of initiation of application [Formula 3]"}},
  "data": [
    {"molecule": "COc1ccc2c(c1)c(CC(=O)O)c(C)n2C(=O)c1ccc(Cl)cc1", "note": "[Indomethacin, indomethacine]", "values": [
      {"measurement": "Inhibition (%) (mean)", "setting": "[1]", "value": 92, "unit": "%"},
      {"measurement": "Ear weight (mean ± SD)", "setting": "[1]; untreated 6.64 ± 0.65, TPA alone 13.21 ± 2.49", "value": "7.20 ± 0.57"}
    ]},
    {"molecule": "CC1=C(/C=C/C(C)=C/C=C/C(C)=C/C(=O)O)C(C)(C)CCC1", "note": "[RA, retinoic acid]", "values": [
      {"measurement": "MMP-1 biosynthesis (%)", "setting": "[2]", "value": 45, "unit": "%"}
    ]},
    {"molecule": "TGF-β: Human Transforming Growth Factor-β1, Roche Co.; positive control", "values": [
      {"measurement": "Type I procollagen biosynthesis (%)", "setting": "type I procollagen", "value": 100, "unit": "%"}
    ]},
    {"molecule": "OC[C@H]1O[C@@H](Oc2ccc(O)cc2)[C@H](O)[C@@H](O)[C@@H]1O", "note": "[Arbutin, arbutin]", "values": [
      {"measurement": "inhibition at 100 ppm", "setting": "[3]", "value": 52, "unit": "%"}
    ]},
    {"molecule": "[Ca+2]", "note": "[Ca^2+, calcium]", "values": [
      {"measurement": "Differentiation (%) of keratinocytes", "setting": "human keratinocytes", "value": 215, "unit": "%"},
      {"measurement": "Expression (%) of transglutaminase", "setting": "transglutaminase", "value": 138, "unit": "%"}
    ]},
    {"molecule": "Oc1ccc(O)cc1", "note": "[Hydroquinone, hydroquinone]", "values": [
      {"measurement": "Difference (ΔL*) in skin color", "setting": "human skin", "value": "1.89 ± 0.15"}
    ]}
  ]
}
